Data as given in patent US10851082B2, “Substituted aromatic n-heterocyclic compounds as inhibitors of mitogen-activated protein kinase interacting kinase 1 (MNK1) and 2 (MNK2)” (Northwestern University, priority 2015, dated 2020).
Where two headings read alike, the source gives them in different places.

Columns and labels:
Mnk1 = Mnk1 (Homo sapiens (Human), UniProt Q9BUB5); assay: Mnk1 kinase inhibition, ADP-Glo ADP monitoring assay; assay type: biochemical; conditions: for IC50: read-out: Mnk1 IC50
Experimental: (§1) The synthesized compounds then were tested for inhibition of the kinase activity (IC50) of Mnk1 and/or Mnk2 using the ADP monitoring assay for kinases described in Zegzouti, H.; Zdanovskaia, M.; Hsiao, K.; Goueli, S. A., ADP-Glo: A Bioluminescent and homogeneous ADP monitoring assay for kinases.

Mnk2 = Mnk2 (Homo sapiens (Human), UniProt Q9HBH9); assay: Mnk2 kinase inhibition, ADP-Glo ADP monitoring assay; assay type: biochemical; conditions: ADP-Glo kinase assay; for IC50: read-out: Mnk2 IC50
Sequence of Mnk2 (Q9HBH9 whole entry): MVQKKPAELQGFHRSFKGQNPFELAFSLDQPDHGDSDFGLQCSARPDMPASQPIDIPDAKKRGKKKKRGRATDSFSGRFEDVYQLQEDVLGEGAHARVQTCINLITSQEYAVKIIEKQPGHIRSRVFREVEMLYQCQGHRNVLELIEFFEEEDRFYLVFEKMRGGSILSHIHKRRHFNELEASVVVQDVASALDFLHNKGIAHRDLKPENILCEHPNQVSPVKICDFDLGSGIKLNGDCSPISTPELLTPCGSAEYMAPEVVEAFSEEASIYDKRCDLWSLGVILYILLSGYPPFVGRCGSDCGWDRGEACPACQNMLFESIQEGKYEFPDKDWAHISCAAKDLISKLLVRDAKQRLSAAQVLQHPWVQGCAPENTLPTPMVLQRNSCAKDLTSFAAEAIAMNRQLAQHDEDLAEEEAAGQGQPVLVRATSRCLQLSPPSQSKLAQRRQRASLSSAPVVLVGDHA
Experimental: as §1

Sequence of Mnk1 (Q9BUB5 whole entry): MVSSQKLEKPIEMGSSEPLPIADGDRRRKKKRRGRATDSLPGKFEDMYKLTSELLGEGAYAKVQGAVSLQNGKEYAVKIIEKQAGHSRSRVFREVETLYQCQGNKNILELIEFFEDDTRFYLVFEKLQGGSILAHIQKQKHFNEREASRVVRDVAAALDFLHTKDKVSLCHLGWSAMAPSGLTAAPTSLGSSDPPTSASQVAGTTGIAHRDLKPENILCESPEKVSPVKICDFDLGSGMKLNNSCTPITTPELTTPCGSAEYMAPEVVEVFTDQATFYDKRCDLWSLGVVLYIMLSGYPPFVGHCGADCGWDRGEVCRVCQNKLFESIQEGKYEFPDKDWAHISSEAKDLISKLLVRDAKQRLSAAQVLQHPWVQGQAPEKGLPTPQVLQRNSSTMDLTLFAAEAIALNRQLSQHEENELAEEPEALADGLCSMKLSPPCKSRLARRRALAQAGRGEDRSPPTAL

| SMILES | IC50 (Mnk1) [nM] | IC50 (Mnk2) [nM] | IC50 (Mnk1; unit inferred) [nM] | IC50 (Mnk2; unit inferred) [nM] | also measured |
| --- | --- | --- | --- | --- | --- |
| S=c1oc2ccccc2n1-c1ccnc(NCCc2ccncc2)n1 [NUCC-0176354] | 10000 | 4900 |  |  |  |
| Clc1cnc(NCCc2c[nH]c3ccccc23)nc1-n1cnc2ccccc21 [NUCC-0176355] | 13000 | 2400 |  |  |  |
| COC(=O)CNc1ncc(Cl)c(-n2cnc3ccccc32)n1 [NUCC-0176356] | 11000 | 1400 |  |  |  |
| Clc1cnc(NCCc2cccnc2)nc1-n1cnc2ccccc21 [NUCC-0176357] | 2300 | 250 |  |  |  |
| OCCNc1ncc(Cl)c(-n2cnc3ccccc32)n1 [NUCC-0176358] | 450 | 130 |  |  |  |
| NC(=O)CNc1ncc(Cl)c(-n2cnc3ccccc32)n1 [NUCC-0176359] | 1500 | 320 |  |  |  |
| Clc1cnc(NCc2cccnc2)nc1-n1cnc2ccccc21 [NUCC-0176360] | 4500 | 1000 |  |  |  |
| O=C(O)CNc1ncc(Cl)c(-n2cnc3ccccc32)n1 [NUCC-0176361] |  |  |  |  | Mnk1 IC50 (Mnk1): no activity; Mnk2 IC50 (Mnk2): no activity |
| O=C(Nc1cc(C(F)(F)F)cc(C(F)(F)F)c1)Nc1nccc(-n2cnc3ccccc32)n1 [NUCC-0176362] |  |  |  |  | Mnk1 IC50 (Mnk1): no activity; Mnk2 IC50 (Mnk2): no activity |
| FC(F)(F)c1cc(NC(=S)Nc2nccc(-n3cnc4ccccc43)n2)cc(C(F)(F)F)c1 [NUCC-0176363] |  |  |  |  | Mnk1 IC50 (Mnk1): no activity; Mnk2 IC50 (Mnk2): no activity |
| O=[N+]([O-])c1ccc(NCCNc2nccc(-n3cnc4ccccc43)n2)nc1 [NUCC-0176365] | 7400 | 2100 |  |  |  |
| O=[N+]([O-])c1ccc(NCCNc2ccnc(-n3cnc4ccccc43)n2)nc1 [NUCC-0176366] | 8500 | 2500 |  |  |  |
| O=C1NCCCCC1Nc1nccc(-n2cnc3ccccc32)n1 (stereo not drawn) [NUCC-0176367] | 2600 | 500 |  |  |  |
| O=C1NCCCCC1Nc1ccnc(-n2cnc3ccccc32)n1 (stereo not drawn) [NUCC-0176368] | 11000 | 5200 |  |  |  |
| OC1Cc2ccccc2C1Nc1nccc(-n2cnc3ccccc32)n1 (stereo not drawn) [NUCC-0176369] |  |  |  |  | Mnk1 IC50 (Mnk1): no activity; Mnk2 IC50 (Mnk2): no activity |
| CCNC(=O)Nc1nccc(-n2cnc3ccccc32)n1 [NUCC-0196222] |  |  | > 10000 | 2200 |  |
| Nc1cc(-n2cnc3ccccc32)nc(NCc2cccnc2)n1 [NUCC-0196223] |  |  | > 10000 | 1800 |  |
| Brc1cnc(NCCc2ccncc2)nc1-n1cnc2ccccc21 [NUCC-0196228] |  |  | 550 | 69 |  |

| SMILES | IC50 (Mnk1) [nM] | IC50 (Mnk2) [nM] | IC50 (Mnk1; unit inferred) [nM] | IC50 (Mnk2; unit inferred) [nM] | also measured |
| --- | --- | --- | --- | --- | --- |
| COC(=O)c1cc(-n2cnc3ccccc32)nc(NCCc2ccncc2)n1 [NUCC-0196230] |  |  | > 10000 | > 10000 |  |
| Nc1cnc(NCCc2ccncc2)nc1-n1cnc2ccccc21 [NUCC-0196231] |  |  | > 10000 | > 10000 |  |
| O=C(NC1CC1)c1cc(-n2cnc3ccccc32)nc(NCCc2ccncc2)n1 [NUCC-0196234] |  |  | > 10000 | 5400 |  |
| c1cc(NCCc2ccncc2)nc(-n2cnc3ccccc32)c1 [NUCC-0196235] |  |  | 100 | 10 |  |
| O=C(O)c1cc(-n2cnc3ccccc32)nc(NCCc2ccncc2)n1 [NUCC-0196239] |  |  | > 10000 | 6900 |  |
| N#Cc1cnc(NCCc2ccncc2)nc1-n1cncn1 [NUCC-0196250] |  |  | > 10000 | > 10000 |  |
| c1ccc(C2CC2Nc2nccc(-n3cnc4ccccc43)n2)cc1 (stereo not drawn) [NUCC-0196255] |  |  | > 10000 | 920 |  |
| O[C@@H](c1ccccc1)[C@H](Nc1nccc(-n2cnc3ccccc32)n1)c1ccccc1 [NUCC-0196256] |  |  | 7300 | 3800 |  |
| O[C@H](c1ccccc1)[C@@H](Nc1nccc(-n2cnc3ccccc32)n1)c1ccccc1 [NUCC-0196257] |  |  | 1300 | 310 |  |
| O[C@@H](c1ccccc1)[C@H](Nc1ccnc(-n2cnc3ccccc32)n1)c1ccccc1 [NUCC-0196258] |  |  | > 10000 | 7000 |  |
| O[C@H](c1ccccc1)[C@@H](Nc1ccnc(-n2cnc3ccccc32)n1)c1ccccc1 [NUCC-0196259] |  |  | 5600 | 320 |  |
| c1ccc2c(c1)ncn2-c1ccnc(NCCc2c[nH]c3ccccc23)n1 [NUCC-0196260] |  |  | 500 | 90 |  |
| c1ccc2c(c1)ncn2-c1nccc(NCCc2c[nH]c3ccccc23)n1 [NUCC-0196261] |  |  | 920 | 110 |  |
| c1ccc2c(c1)ncn2-c1ccnc(NCCc2ccncc2)c1 [NUCC-0196262] |  |  | 1300 | 1200 |  |
| Oc1cnc(NCCc2ccncc2)nc1-n1cnc2ccccc21 [NUCC-0196263] |  |  | > 10000 | > 10000 |  |
| N#Cc1cnc(NCCc2ccncc2)nc1-n1cnc(-c2ccccc2)c1 [NUCC-0196264] |  |  | 96 | 57 |  |
| NC(=O)c1cc(-n2cnc3ccccc32)nc(NCCc2ccncc2)n1 [NUCC-0196265] |  |  | 1600 | 890 |  |
| Nc1cc(-n2cnc3ccccc32)nc(NCCc2ccncc2)n1 [NUCC-0196307] |  |  | 870 | 170 |  |
